Key:
[1] = tested on: hippocampal neuronal cell cultures; assay: Acute addition of antimicrobial agents to spontaneously active hippocampal neuronal cultures on MMEP plates; assay type: cell-based, rat; conditions: for effect on spontaneous activity at up to 10 times the normal concentration/volume: sequential 10 μl additions up to 10 times normal; for effect on spontaneous activity (firing) of the monitored channel: acute addition (10 μl) at the concentration used routinely in tissue culture, hippocampal cultures grown 4 weeks antibiotic-free; for effect of further sequential 10 μl additions: subsequent 10 μl aliquots (penicillin G up to 100 μl at approx. 10 second intervals)
Procedure: Acute administration of antibiotic compounds to neuronal cell cultures: the majority of experiments involved the investigation of acute addition of a range of antibiotics to hippocampal cultures grown in antibiotic-free Neurobasal medium for 4 weeks. In each case MMEP's were screened for activity and a strong, reliable channel was selected for experimentation. Each antibiotic was tested on at least 3 individual cultures and the antibiotic addition was started at the concentration used routinely in tissue culture studies. As controls, the anti-fungal agents Nystatin and Amphotericin B (Fungizone), and the anti-mycoplasma (PPLO) agent Tylosin were also tested. In addition, the agent in which the antibiotic compound was dissolved (usually deionised water or 0.9% sodium chloride), as well as normal medium, were also tested for any effects on neuronal activity. Particular interest was paid to the effects of penicillin G, streptomycin and penicillin/streptomycin mixtures. These are routinely used in tissue culture medium and therefore any possible toxic effects are particularly relevant.

P19 cell line = assay: Differentiation of P19 cell line with retinoic acid; assay type: cell-based, mouse; conditions: retinoic acid in differentiation medium
Procedure: Differentiation: MEM+0.1% FBS+L-Glutamine (2 mM)+Non-essential Amino acids (1×)+30 uM retinoic acid
Neurobasal+B27+Non-essential Amino acids (1×)+L-Glutamine (2 mM)+30 uM retinoic acid
Differentiation experiments have been performed on the P19 cell line using retinoic acid. […] However, only 60-70% of the cells responded to the stimulus, such that over an extended period the non-neuronal cells proliferate vigorously and kill the neuronal cells. The use of serum-free medium has overcome this problem but cultures appear unhealthy after a period of 2 weeks.

hippocampal cultures = assay: Chronic administration of antibiotics to hippocampal cultures grown over 4 weeks, neuronal network activity; assay type: cell-based, rat
Procedure: Effects of antibiotics on neuronal network activity: chronic administration of antibiotics to neuronal cell cultures. The chronic effect of antibiotics on neuronal network activity was investigated. Experiments were performed on hippocampal cultures grown in parallel, from the same cell preparation, in the presence or absence of penicillin-streptomycin or gentamycin at the recommended doses.

guinea pigs = conditions: high doses, administered chronically to guinea pigs; cited from earlier work

C[C@@H]1[C@H](O)[C@@H](C)/C=C/C=C/CC/C=C/C=C/C=C/C=C/C(O[C@H]2O[C@H](C)[C@@H](O)[C@H](N)[C@@H]2O)CC2O[C@](O)(CC(O)C(O)CCC(O)CC(O)CC(O)CC(=O)O[C@H]1C)CC(O)C2C(=O)O (stereo partly drawn) [Nystatin]
effect on spontaneous activity at up to 10 times the normal concentration/volume [1]: No inhibition of activity

CC1(C)S[C@@H]2[C@H](NC(=O)Cc3ccccc3)C(=O)N2[C@H]1C(=O)O [Penicillin G]
effect on spontaneous activity (firing) of the monitored channel [1]: immediate increase in the firing rate
effect on spike amplitude ([1]; acute addition of 10 μl): small associated decrease in the amplitude
effect on spontaneous activity at up to 10 times the normal concentration/volume [1]: initial acceleration of the firing rate, with an accompanied reduction in spike amplitude
effect of further sequential 10 μl additions [1]: further decrease in the amplitude with eventual slowing of the firing rate

[H]/N=C(/N)N[C@H]1[C@H](O)[C@@H](O)[C@H](O[C@@H]2O[C@@H](C)[C@](O)(C=O)[C@H]2O[C@@H]2O[C@@H](CO)[C@H](O)[C@@H](O)[C@@H]2NC)[C@@H](N/C(N)=N\[H])[C@@H]1O [Streptomycin]
silence before activity begins to recover ([1]; 10 μl, particularly strong (>500(V) channel, without change of medium)): approximately 30 seconds
effect on spontaneous activity (firing) of the monitored channel [1]: immediate cessation of firing
effect of further sequential 10 μl additions [1]: immediate interruption of activity
effect on channel with weak activity ([1]; weak activity (<500 μV), single 10 μl addition): sufficient to inhibit activity for several minutes

CC[C@H]1OC(=O)C[C@@H](O)[C@H](C)[C@@H](O[C@@H]2O[C@H](C)[C@@H](O[C@H]3C[C@@](C)(O)[C@@H](O)[C@H](C)O3)[C@H](N(C)C)[C@H]2O)[C@@H](CC=O)C[C@@H](C)C(=O)/C=C/C(C)=C/[C@@H]1CO[C@@H]1O[C@H](C)[C@@H](O)[C@@H](OC)[C@H]1OC [Tylosin]
effect on spontaneous activity at up to 10 times the normal concentration/volume [1]: No inhibition of activity

C[C@@H]1[C@H](O)[C@@H](C)/C=C/C=C/C=C/C=C/C=C/C=C/C=C/[C@H](O[C@@H]2O[C@H](C)[C@@H](O)[C@H](N)[C@@H]2O)C[C@@H]2O[C@](O)(C[C@@H](O)C[C@@H](O)[C@H](O)CC[C@@H](O)C[C@@H](O)CC(=O)O[C@H]1C)C[C@H](O)[C@H]2C(=O)O [amphotericin B, Amphotericin B]
effect on spontaneous activity at up to 10 times the normal concentration/volume [1]: No inhibition of activity

CC1=C(/C=C/C(C)=C/C=C/C(C)=C/C(=O)O)C(C)(C)CCC1 [retinoic acid]
proportion of cells that responded to the stimulus (P19 cell line): 60-70%

Gentamicin
long-term effect indicated by poor frequency of activity detection (hippocampal cultures; cultures grown for several weeks in the presence of the antibiotic): toxic effect
effect on neuronal network activity after chronic presence (hippocampal cultures; recommended doses, grown over a 4-week period): almost complete cessation of activity
effect on neuronal cytoarchitecture (guinea pigs): major structural changes in neuronal cytoarchitecture
effect on spontaneous activity (firing) of the monitored channel [1]: cessation of neuronal activity
reversibility of inhibition ([1]; complete medium change within the MMEP culture apparatus): reversed by a complete medium change

Polymyxin ‘B’
effect on spontaneous activity (firing) of the monitored channel [1]: inhibition of activity
